In patent US20210300940A1 (Merck Patent GmbH, priority 2018, published 2021):

How the values were obtained:
TLR8 = target: T1, TLR8 (Homo sapiens, UniProt Q9NR97); test: HEK/293 TLR8 Cell Assay; type: cell-based; conditions: HEK cells, R848 agonist 30 uM final concentration, Steady-Glo readout; read-out: TLR8 potency
T1 construct: expressed in transfected cells; host or cells: HEK/293 reporter cells (NF-kB luciferase)
T1 sequence (Q9NR97 27-1041): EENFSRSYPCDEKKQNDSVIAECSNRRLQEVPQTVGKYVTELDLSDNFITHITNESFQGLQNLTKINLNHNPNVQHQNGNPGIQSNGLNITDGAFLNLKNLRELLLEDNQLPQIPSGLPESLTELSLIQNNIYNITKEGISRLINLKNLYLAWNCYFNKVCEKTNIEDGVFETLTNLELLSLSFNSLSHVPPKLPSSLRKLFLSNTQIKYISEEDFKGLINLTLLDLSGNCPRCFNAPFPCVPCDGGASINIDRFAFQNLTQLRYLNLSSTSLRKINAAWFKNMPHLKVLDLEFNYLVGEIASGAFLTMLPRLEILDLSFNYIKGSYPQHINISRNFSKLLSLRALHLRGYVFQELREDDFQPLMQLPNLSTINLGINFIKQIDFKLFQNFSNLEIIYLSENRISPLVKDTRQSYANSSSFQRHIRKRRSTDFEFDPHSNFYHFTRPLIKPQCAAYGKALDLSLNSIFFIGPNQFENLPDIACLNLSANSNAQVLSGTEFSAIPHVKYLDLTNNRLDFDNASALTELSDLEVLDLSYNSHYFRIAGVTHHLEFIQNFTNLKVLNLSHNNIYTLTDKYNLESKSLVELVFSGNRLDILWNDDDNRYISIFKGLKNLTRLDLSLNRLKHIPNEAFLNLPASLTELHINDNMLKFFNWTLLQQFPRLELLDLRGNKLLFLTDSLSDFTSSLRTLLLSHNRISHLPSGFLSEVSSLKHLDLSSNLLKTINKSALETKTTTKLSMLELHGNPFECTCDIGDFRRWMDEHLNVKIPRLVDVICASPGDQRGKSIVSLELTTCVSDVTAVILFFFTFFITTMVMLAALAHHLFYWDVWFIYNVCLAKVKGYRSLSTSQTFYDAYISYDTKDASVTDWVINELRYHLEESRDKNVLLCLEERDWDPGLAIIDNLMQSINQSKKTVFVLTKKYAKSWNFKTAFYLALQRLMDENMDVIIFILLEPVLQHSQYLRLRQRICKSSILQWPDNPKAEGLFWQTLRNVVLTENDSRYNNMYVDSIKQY
Description: (§1) Example 390: HEK/293 TLR8 Cell Assay Into 384 CulturePlates (Corning 3765) was placed 5000 c/w of […] in 30 uL DMEM without Phenol red (gibco #31053-028) and 10% heat inactivated fetal bovine serum, 1% penicillin-streptomycin, and 2 mM L-Glutamine. The cells were incubated for 24 h at 37° C., 10% carbon dioxide and 90% relative humidity. 3 uL of controls, standards, and compounds were dispensed into wells, incubated for 30 min then 3 uL of R848 agonist (30 uM final concentration) was added in 20 mM Hepes. After incubation for 5 hours, they were allowed to stand at room temperature for 15 min. To this was added 10 uL of Steady-Glo substrate reagent and shake assay plate for 5 min at 1500 rpm. The assay plate was allowed to sit for 30 min at room temperature and then the plate was read on EnVision.

TLR7 = target: T2, TLR7 (Homo sapiens, UniProt Q9NYK1); test: HEK/293 TLR7 Cell Assay; type: cell-based; conditions: TLR7/NFKb HEK cells, R848 agonist 10 uM final concentration, Steady-Glo readout; read-out: TLR7 potency
T2 construct: expressed in transfected cells; host or cells: HEK/293 cells carrying TLR7 and an NF-kB luciferase reporter
T2 sequence (Q9NYK1 27-1049): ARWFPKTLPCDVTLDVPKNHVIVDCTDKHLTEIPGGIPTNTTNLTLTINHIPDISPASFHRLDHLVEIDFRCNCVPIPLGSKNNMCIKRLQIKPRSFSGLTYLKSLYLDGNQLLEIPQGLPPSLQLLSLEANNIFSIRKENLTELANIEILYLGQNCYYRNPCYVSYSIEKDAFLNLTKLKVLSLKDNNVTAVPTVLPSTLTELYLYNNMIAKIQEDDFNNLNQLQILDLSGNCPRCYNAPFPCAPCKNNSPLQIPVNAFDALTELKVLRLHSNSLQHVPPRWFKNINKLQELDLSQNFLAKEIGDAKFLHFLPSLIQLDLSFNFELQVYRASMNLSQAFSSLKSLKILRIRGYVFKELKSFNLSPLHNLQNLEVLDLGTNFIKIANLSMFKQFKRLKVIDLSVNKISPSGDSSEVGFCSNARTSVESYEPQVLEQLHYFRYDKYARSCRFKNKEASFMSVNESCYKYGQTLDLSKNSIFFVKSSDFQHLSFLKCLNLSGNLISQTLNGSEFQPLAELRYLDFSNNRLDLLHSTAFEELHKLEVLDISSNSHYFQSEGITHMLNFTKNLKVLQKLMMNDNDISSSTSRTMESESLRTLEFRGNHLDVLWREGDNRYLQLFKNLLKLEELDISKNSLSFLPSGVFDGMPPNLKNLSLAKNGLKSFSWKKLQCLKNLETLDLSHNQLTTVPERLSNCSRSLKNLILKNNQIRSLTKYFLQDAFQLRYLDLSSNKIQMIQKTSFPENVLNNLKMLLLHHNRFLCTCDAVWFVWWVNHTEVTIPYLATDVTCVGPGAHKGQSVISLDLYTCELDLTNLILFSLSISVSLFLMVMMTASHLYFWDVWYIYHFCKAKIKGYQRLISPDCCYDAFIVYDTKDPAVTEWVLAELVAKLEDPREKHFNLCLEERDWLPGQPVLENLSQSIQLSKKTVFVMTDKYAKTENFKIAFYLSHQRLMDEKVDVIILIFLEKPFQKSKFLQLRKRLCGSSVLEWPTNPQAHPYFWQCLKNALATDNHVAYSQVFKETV
Description: as §1, with “389:” for “390:”, “TLR7” for “TLR8”, “[…]” for “1%”, “(10” for “(30”

| SMILES | IC50 (TLR8) [nM] | IC50 (TLR7) [nM] |
| --- | --- | --- |
| C[C@@H](C(=O)N[C@@H]1C[C@H](C(F)(F)F)CN(c2ccc(C#N)c3ncccc23)C1)N1CCN(C)CC1 (single isomer, unassigned) [Example 101] | < 75 | < 75 |
| CC(C(=O)N[C@@H]1C[C@H](C)CN(c2ccc(C#N)c3nccnc23)C1)N1CCC(O)CC1 (single isomer, unassigned) [Example 102] | < 75 | < 75 |
| C[C@H]1C[C@@H](NC(=O)[C@@H](C)N2CCC(O)CC2)CN(c2ccc(C#N)c3nccnc23)C1 (single isomer, unassigned) [Example 103] | < 75 | > 150 |
| CC(C(=O)N[C@@H]1C[C@H](C)CN(c2ccc(C(F)(F)F)c3ncccc23)C1)N1CCC(O)CC1 (single isomer, unassigned) [Example 104] | < 75 | < 75 |
| C[C@H]1C[C@@H](NC(=O)[C@@H](C)N2CCC(O)CC2)CN(c2ccc(C(F)(F)F)c3ncccc23)C1 (single isomer, unassigned) [Example 105] | < 75 | > 150 |
| N#Cc1ccc(N2C[C@H](NC(=O)C3(F)CCNC3)C[C@H](C(F)(F)F)C2)c2cccnc12 (single isomer, unassigned) [Example 163] | < 75 | < 75 |
| N#Cc1ccc(N2C[C@H](NC(=O)[C@@]3(F)CCNC3)C[C@H](C(F)(F)F)C2)c2cccnc12 (single isomer, unassigned) [Example 164] | 75 to 150 | 75 to 150 |
| N#Cc1ccc(N2C[C@H](N)CC(F)(F)C2)c2cccnc12 (single isomer, unassigned) [Example 197] | < 75 | < 75 |
| N#Cc1ccc(N2C[C@H](N)CC(F)(F)C2)c2cccnc12 (single isomer, unassigned) [Example 198] | > 150 | > 150 |
| C[C@@H]1CN(c2ccc(C#N)c3nccnc23)C[C@H](CSC[C@H](O)CO)O1 (single isomer, unassigned) [Example 229] | < 75 | 75 to 150 |
| C[C@@H]1CN(c2ccc(C#N)c3nccnc23)C[C@H](CSC[C@@H](O)CO)O1 (single isomer, unassigned) [Example 230] | < 75 | < 75 |
| C[C@@H]1CN(c2ccc(C#N)c3nccnc23)C[C@H](C(=O)NC[C@H](O)CN(C)C)O1 (single isomer, unassigned) [Example 261] | < 75 | < 75 |
| C[C@@H]1CN(c2ccc(C#N)c3nccnc23)C[C@H](C(=O)NC[C@@H](O)CN(C)C)O1 (single isomer, unassigned) [Example 262] | < 75 | < 75 |
| C[C@@H]1CN(c2ccc(C#N)c3nccnc23)C[C@H](C(=O)NC[C@H]2COCCN2C)O1 (single isomer, unassigned) [Example 263] | < 75 | < 75 |
| C[C@@H]1CN(c2ccc(C#N)c3nccnc23)C[C@H](C(=O)NC[C@@H]2COCCN2C)O1 (single isomer, unassigned) [Example 264] | < 75 | < 75 |
| C[C@@H](O)CNC(=O)[C@H]1CN(c2ccc(C#N)c3nccnc23)C[C@@H](C(F)(F)F)O1 (single isomer, unassigned) [Example 278] | > 150 | > 150 |
| C[C@@H](O)CNC(=O)[C@@H]1CN(c2ccc(C#N)c3nccnc23)C[C@H](C(F)(F)F)O1 (single isomer, unassigned) [Example 279] | > 150 | 75 to 150 |
| N#Cc1ccc(N2C[C@@H](C(F)(F)F)O[C@@H](C(=O)NC[C@H](O)CO)C2)c2nccnc12 (single isomer, unassigned) [Example 280] | > 150 | 75 to 150 |
| N#Cc1ccc(N2C[C@@H](C(=O)NC[C@H](O)CO)O[C@@H](C(F)(F)F)C2)c2nccnc12 (single isomer, unassigned) [Example 281] | > 150 | > 150 |
| N#Cc1ccc(N2C[C@@H](C(F)(F)F)O[C@@H](C(=O)NC[C@@H](O)CO)C2)c2nccnc12 (single isomer, unassigned) [Example 282] | > 150 | 75 to 150 |
| N#Cc1ccc(N2C[C@@H](C(=O)NC[C@@H](O)CO)O[C@@H](C(F)(F)F)C2)c2nccnc12 (single isomer, unassigned) [Example 283] | > 150 | > 150 |
| CC(C)(O)CNC(=O)[C@H]1CN(c2ccc(C#N)c3nccnc23)C[C@@H](C(F)(F)F)O1 (single isomer, unassigned) [Example 284] | 75 to 150 | < 75 |
| CC(C)(O)CNC(=O)[C@@H]1CN(c2ccc(C#N)c3nccnc23)C[C@H](C(F)(F)F)O1 (single isomer, unassigned) [Example 285] | > 150 | > 150 |
| C[C@H](O)CNC(=O)[C@H]1CN(c2ccc(C#N)c3nccnc23)C[C@@H](C(F)(F)F)O1 (single isomer, unassigned) [Example 286] | > 150 | > 150 |
| C[C@H](O)CNC(=O)[C@@H]1CN(c2ccc(C#N)c3nccnc23)C[C@H](C(F)(F)F)O1 (single isomer, unassigned) [Example 287] | 75 to 150 | 75 to 150 |
| C[C@@H]1CN(c2ccc(C#N)c3nccnc23)C[C@H](C(=O)NC[C@H]2COCCN2)O1 (single isomer, unassigned) [Example 296] | < 75 | < 75 |
| C[C@@H]1CN(c2ccc(C#N)c3nccnc23)C[C@H](C(=O)NC[C@@H]2COCCN2)O1 (single isomer, unassigned) [Example 297] | < 75 | < 75 |
